The source of these data is patent US9150840B2, “Isolated bacterial strain of Achromobacter sp. MTCC 5605 and a highly enantioselective epoxide hydrolase isolated therefrom” (COUNCIL OF SCIENTIFIC & INDUSTRIAL RESEARCH, priority 2011, dated 2015).

In the first assay the test system is epoxide hydrolase from Achromobacter sp. MTCC 5605.
Test: not given
The class given is biochemical. The settings on record: pH 8.
As for `O[C@H](CS)[C@H](O)CS` (racemic) [dithiothreitol], the “Inhibition of epoxide hydrolase activity” value is recorded as “none of them showed any inhibition”. In the case of `CCCCCCCCCCCCCCCC[N+](C)(C)C.[Br-]` [cetyltrimethylammonium bromide], the “Inhibition of epoxide hydrolase activity” value is “none of them showed any inhibition”. `CCOC(=O)OC(=O)OCC` [diethyl pyrocarbonate]: the “Inhibition of epoxide hydrolase activity” value is “none of them showed any inhibition”.

Turning to `O=C(O)CN(CCN(CC(=O)O)CC(=O)O)CC(=O)O` [ethylenediaminetetraacetic acid], the “Inhibition of epoxide hydrolase activity” value was “none of them showed any inhibition”. For `NO` [hydroxylamine], the “Inhibition of epoxide hydrolase activity” value is on record as “none of them showed any inhibition”. Consider `NNc1ccccc1` [phenyl hydrazine], for which the “Inhibition of epoxide hydrolase activity” value was “none of them showed any inhibition”. The same measure, in the same setting: with `CCCCCCCCCCCCOS(=O)(=O)[O-].[Na+]` [sodium dodecyl sulphate] the entry was “none of them showed any inhibition”.

Another assay concerns Achromobacter sp. MTCC 5605. The assay can be described thus: Antibiotic sensitivity of the isolated strain. The assay is classed as cell-based.
Settings: not given
For `C[C@@H]1[C@H](O)[C@@H](C)/C=C/C=C/C=C/C=C/C=C/C=C/C=C/[C@H](O[C@@H]2O[C@H](C)[C@@H](O)[C@H](N)[C@@H]2O)C[C@@H]2O[C@](O)(C[C@@H](O)C[C@@H](O)[C@H](O)CC[C@@H](O)C[C@@H](O)CC(=O)O[C@H]1C)C[C@H](O)[C@H]2C(=O)O` [Amphotericin B], the Antibiotic sensitivity entry is recorded as “Resistant to Penicillin-G (10 units), Methicillin (5 mcg),”. Consider `O=C(N[C@H](CO)[C@H](O)c1ccc([N+](=O)[O-])cc1)C(Cl)Cl` [Chloramphenicol], for which the Antibiotic sensitivity entry was “Sensitive to Erythromycin (10 mcg), Gentamycin (10 mcg),”. Same read-out and setting: the result for `O=C(O)c1cn(C2CC2)c2cc(N3CCNCC3)c(F)cc2c1=O` [Ciprofloxacin] reads “Sensitive to Erythromycin (10 mcg), Gentamycin (10 mcg),”; that for `CC[C@H]1OC(=O)[C@H](C)[C@@H](O[C@H]2C[C@@](C)(OC)[C@@H](O)[C@H](C)O2)[C@H](C)[C@@H](O[C@@H]2O[C@H](C)C[C@H](N(C)C)[C@H]2O)[C@](C)(O)C[C@@H](C)C(=O)[C@H](C)[C@@H](O)[C@]1(C)O` [Erythromycin], “Sensitive to Erythromycin (10 mcg), Gentamycin (10 mcg),”; that for `COc1cccc(OC)c1C(=O)N[C@@H]1C(=O)N2[C@@H]1SC(C)(C)[C@@H]2C(=O)O` [Methicillin], “Resistant to Penicillin-G (10 units), Methicillin (5 mcg),”.

Consider `C[C@@H]1[C@H](O)[C@@H](C)/C=C/C=C/CC/C=C/C=C/C=C/C=C/C(O[C@H]2O[C@H](C)[C@@H](O)[C@H](N)[C@@H]2O)CC2O[C@](O)(CC(O)C(O)CCC(O)CC(O)CC(O)CC(=O)O[C@H]1C)CC(O)C2C(=O)O` (stereo partly drawn) [Nystatin], for which the Antibiotic sensitivity entry was “Resistant to Penicillin-G (10 units), Methicillin (5 mcg),”.

As to `CC1(C)S[C@@H]2[C@H](NC(=O)Cc3ccccc3)C(=O)N2[C@H]1C(=O)O` [Penicillin-G], the Antibiotic sensitivity entry is “Resistant to Penicillin-G (10 units), Methicillin (5 mcg),”.

Staying with this assay, now noted: amount per antibiotic as printed (5-30 mcg, 10 units).
Gentamycin: the Antibiotic sensitivity result is reported as “Sensitive to Erythromycin (10 mcg), Gentamycin (10 mcg),”.
